Results from patent US10597388B2, “Pyridazinone herbicides” (FMC CORPORATION, priority 2014, dated 2020).

What was measured:
Experiment in all cases: Test D controlled growth environment herbicide test, pre- and postemergence
Type in all cases: in vivo
[1] = test system: foxtail, green (green foxtail, Setaria viridis)
Source text: (§1) Seeds of plant species selected from bluegrass (annual bluegrass, Poa annua), blackgrass (Alopecurus myosuroides), Canada thistle (Cirsium arvense), canarygrass (Phalaris minor), chickweed (common chickweed, Stellaria media), geranium, cutleaf (cutleaf geranium, Geranium dissectum), galium (catchweed bedstraw, Galium aparine), bromegrass, downy (downy bromegrass, Bromus tectorum), field poppy (Papaver rhoeas), field violet (Viola arvensis), foxtail, green (green foxtail, Setaria viridis), deadnettle (henbit deadnettle, Lamium amplexicaule), ryegrass, Italian (Italian ryegrass, Lolium multiflorum), kochia (Kochia scoparia), lambsquarters (Chenopodium album), oilseed rape (Brassica napus), pigweed (Amaranthus retroflexus), chamomile (scentless chamomile, Matricaria inodora), Russian thistle (Salsola kali), speedwell (bird's-eye speedwell, Veronica persica), barley, spring (spring barley, Hordeum vulgare), wheat, spring (spring wheat, Triticum aestivum), buckwheat, wild (wild buckwheat, Polygonum convolvulus), mustard, wild (wild mustard, Sinapis arvensis), oat, wild (wild oat, Avena fatua), radish, wild (wild radish, Raphanus raphanistrum), windgrass (Apera spica-venti), barley, winter (winter barley, Hordeum vulgare), and wheat, winter (winter wheat, Triticum aestivum) were planted into a silt loam soil and treated preemergence with test chemicals formulated in a non-phytotoxic solvent mixture which included a surfactant.
(§2) At the same time, these species were planted in pots containing Redi-Earth® planting medium (Scotts Company, 14111 Scottslawn Road, Marysville, Ohio 43041) comprising spaghnum peat moss, vermiculite, wetting agent and starter nutrients and treated with postemergence applications of the test chemicals formulated in the same manner. Plants ranged in height from 2 to 18 cm (1- to 4-leaf stage). Treated plants and controls were maintained in a controlled growth environment for 14 to 21 d after which time all species were compared to controls and visually evaluated. Plant response ratings, summarized in Table D, are based on a scale of 0 to 100 where 0 is no effect and 100 is complete control. A dash (-) response means no test result.

[2] = test system: mustard, wild (wild mustard, Sinapis arvensis)
Source text: as §1, §2

[3] = test system: lambsquarters (Chenopodium album)
Source text: as §1, §2

[4] = test system: chamomile (scentless chamomile, Matricaria inodora)
Source text: as §1, §2

[5] = test system: windgrass (Apera spica-venti)
Source text: as §1, §2

[6] = test system: chickweed (common chickweed, Stellaria media)
Source text: as §1, §2

[7] = test system: field poppy (Papaver rhoeas)
Source text: as §1, §2

[8] = test system: pigweed (Amaranthus retroflexus)
Source text: as §1, §2

[9] = test system: barley, winter (winter barley, Hordeum vulgare)
Source text: as §1, §2

[10] = test system: wheat, winter (winter wheat, Triticum aestivum)
Source text: as §1, §2

[11] = test system: oat, wild (wild oat, Avena fatua)
Source text: as §1, §2

[12] = test system: blackgrass (Alopecurus myosuroides)
Source text: as §1, §2

[13] = test system: bromegrass, downy (downy bromegrass, Bromus tectorum)
Source text: as §1, §2

[14] = test system: wheat, spring (spring wheat, Triticum aestivum)
Source text: as §1, §2

[15] = Postemergence, 31 g ai/ha, scale 0 to 100 (0 no effect, 100 complete control)
[16] = Postemergence, 125 g ai/ha, visual rating on scale 0 (no effect) to 100 (complete control), 14 to 21 d
[17] = Postemergence, 250 g ai/ha, scale 0 to 100 (0 no effect, 100 complete control)
[18] = Preemergence, 62 g ai/ha, scale 0 to 100 (0 no effect, 100 complete control)
[19] = Preemergence, 125 g ai/ha, scale 0 to 100 (0 no effect, 100 complete control)
[20] = Preemergence, 250 g ai/ha, scale 0 to 100, 0 no effect, 100 complete control
[21] = postemergence, 62 g ai/ha, scale 0 to 100, 0 no effect, 100 complete control

Cc1nn(C)c(=O)c(-c2cccc3ccccc23)c1O [Compound 11, 5-hydroxy-2,6-dimethyl-4-(1-naphthalenyl)-3(2H)-pyridazinone]
25: Plant response rating, Foxtail, Green [1, 21] | Plant response rating (scale of 0 to 100), Lambsquarters ([3]; Preemergence, 31 g ai/ha) | Plant response rating (scale of 0 to 100), Windgrass ([5]; Preemergence, 31 g ai/ha) | Plant response rating, Barley, Winter [9, 16] | Plant response rating, Wheat, Winter [10, 17] | Blackgrass plant response rating [12, 15] | Plant response rating, Bromegrass, Downy [13, 16] | Plant response rating, Wheat, Spring [14, 16] | Plant response rating, Wheat, Spring [14, 17] | Plant response rating, Wheat, Spring [14, 19]
50: Plant response rating, Bromegrass, Downy [13, 17]
95: Plant response rating, Mustard, Wild [2, 17] | Plant response rating, Pigweed [8, 16]
30: Plant response rating, Wheat, Winter [10, 20] | Plant response rating, Blackgrass [12, 18]
20: Plant response rating, Mustard, Wild [2, 18] | Plant response rating, Windgrass [5, 17] | Plant response rating (scale of 0 to 100), Chickweed ([6]; Preemergence, 31 g ai/ha) | Plant response rating, Barley, Winter [9, 15] | Barley, Winter plant response rating [9, 20] | Plant response rating, Barley, Winter [9, 21] | Plant response rating, Wheat, Winter [10, 19] | Plant response rating, Bromegrass, Downy [13, 19]
98: Plant response rating, Pigweed [8, 19] | Plant response rating, Oat, Wild [11, 17]
90: Plant response rating, Chamomile [4, 17] | Plant response rating, Chickweed [6, 21]
75: Plant response rating, Mustard, Wild [2, 16] | Plant response rating, Mustard, Wild [2, 19] | Plant response rating, Chamomile [4, 16] | Plant response rating, Windgrass [5, 20] | Plant response rating (scale of 0 to 100), Field Poppy ([7]; Preemergence, 31 g ai/ha) | Plant response rating, Field Poppy [7, 18] | Plant response rating, Oat, Wild [11, 21] | Blackgrass plant response rating [12, 20]
70: Plant response rating, Foxtail, Green [1, 17] | Plant response rating, Mustard, Wild [2, 21] | Plant response rating, Oat, Wild [11, 18] | Plant response rating, Blackgrass [12, 16] | Plant response rating, Blackgrass [12, 17]
0: Plant response rating (scale of 0 to 100), Mustard, Wild ([2]; Preemergence, 31 g ai/ha) | Plant response rating (scale of 0 to 100), Pigweed ([8]; Preemergence, 31 g ai/ha) | Plant response rating, Pigweed [8, 18] | Plant response rating (scale of 0 to 100), Wheat, Winter ([10]; Preemergence, 31 g ai/ha) | Plant response rating, Wheat, Winter [10, 18]
85: Plant response rating, Lambsquarters [3, 17] | Plant response rating, Field Poppy [7, 21] | Plant response rating, Oat, Wild [11, 16] | Plant response rating, Oat, Wild [11, 20]
5: Foxtail, Green plant response rating [1, 15] | Plant response rating (scale of 0 to 100), Barley, Winter ([9]; Preemergence, 31 g ai/ha) | Plant response rating, Barley, Winter [9, 18] | Plant response rating, Barley, Winter [9, 19] | Plant response rating (scale of 0 to 100), Blackgrass ([12]; Preemergence, 31 g ai/ha) | Plant response rating (scale of 0 to 100), Bromegrass, Downy ([13]; Preemergence, 31 g ai/ha) | Plant response rating, Bromegrass, Downy [13, 18] | Plant response rating (scale of 0 to 100), Wheat, Spring ([14]; Preemergence, 31 g ai/ha)
65: Plant response rating, Foxtail, Green [1, 16] | Plant response rating, Foxtail, Green [1, 20] | Mustard, Wild plant response rating [2, 15] | Plant response rating, Chamomile [4, 21] | Plant response rating, Pigweed [8, 21]
15: Plant response rating, Foxtail, Green [1, 19] | Plant response rating, Windgrass [5, 16] | Plant response rating, Wheat, Winter [10, 16] | Plant response rating, Wheat, Winter [10, 21] | Plant response rating (scale of 0 to 100), Oat, Wild ([11]; Preemergence, 31 g ai/ha) | Bromegrass, Downy plant response rating [13, 15] | Plant response rating, Bromegrass, Downy [13, 21] | Wheat, Spring plant response rating [14, 15] | Plant response rating, Wheat, Spring [14, 18] | Plant response rating, Wheat, Spring [14, 21]
10: Plant response rating (scale of 0 to 100), Foxtail, Green ([1]; Preemergence, 31 g ai/ha) | Plant response rating, Foxtail, Green [1, 18] | Windgrass plant response rating [5, 15] | Plant response rating, Windgrass [5, 21] | Wheat, Winter plant response rating [10, 15]
80: Plant response rating, Lambsquarters [3, 16] | Plant response rating, Lambsquarters [3, 21] | Plant response rating, Chickweed [6, 16] | Plant response rating, Field Poppy [7, 16] | Plant response rating, Oat, Wild [11, 19]
35: Plant response rating, Lambsquarters [3, 18] | Plant response rating, Windgrass [5, 18] | Field Poppy plant response rating [7, 15] | Pigweed plant response rating [8, 15] | Plant response rating, Wheat, Spring [14, 20]
45: Chickweed plant response rating [6, 15]
60: Lambsquarters plant response rating [3, 15]
55: Plant response rating, Windgrass [5, 19] | Plant response rating, Blackgrass [12, 19] | Plant response rating, Bromegrass, Downy [13, 20]
100: Plant response rating, Mustard, Wild [2, 20] | Plant response rating, Lambsquarters [3, 19] | Plant response rating, Lambsquarters [3, 20] | Plant response rating, Chickweed [6, 17] | Plant response rating, Chickweed [6, 18] | Plant response rating, Chickweed [6, 19] | Plant response rating, Chickweed [6, 20] | Plant response rating, Field Poppy [7, 17] | Plant response rating, Field Poppy [7, 19] | Plant response rating, Field Poppy [7, 20] | Plant response rating, Pigweed [8, 17] | Plant response rating, Pigweed [8, 20]
40: Chamomile plant response rating [4, 15] | Plant response rating, Barley, Winter [9, 17] | Oat, Wild plant response rating [11, 15] | Plant response rating, Blackgrass [12, 21]
